Data on seven compounds can be found in patent US6447801B1, “Anti-parasitic action of N,N-diethyl-m-toluamide (deet) and formulations that prolong its activity in the skin” (priority 1997, dated 2002).

The test system of one data set is cercariae. The note with it: in tissue culture / in vitro, cited from earlier work.
Data set [1] can be described thus: Disposition of 14C-DEET and 14C-Lipodeet after skin application (skin, blood, urine, bedding radioactivity). How it is done: In this series of experiments, 11.472 mg of ^14C-DEET of ^14C-Lipodeet (in 100 μl) was applied to 5 cm^2 area of the mice abdominal skin. At different time points (15 min, 30 min, 60 min, 2 hrs., 4 hrs., 24 hrs., 48 hrs. and 72 hrs.) after application, the whole area of skin where the lipodeet had been applied was collected, underlying tissue removed and the radioactivity measured in a Beckman β-counter. Samples of blood and urine were also collected at these time points from each mouse to measure the radioactivity (n=10 for each time point). […] In this study, we made observations only up to 72 hrs. […] There are two possibilities, (1) substantial quantities of both DEET and Lipodeet are absorbed systemically through the skin within 24 hrs., or (2) both the chemicals are lost in the bedding due to direct contact of the applied area to the bedding materials. The first hypothesis was tested by measuring ^14C levels in the blood and urine in these animals.

Where two headings read alike, the source gives them in different places.

In the case of `C[C@@H]1CC[C@H]2C(C)(C)[C@H]3C[C@@]12CC[C@@]3(C)O` [Cederol], in the data set with cercariae, the cercaricidal effect entry was “significant cercaricidal effect”. As to `CCCCCCCCCCCC(=O)N(CC)CC` [N,N-diethyl lauramide], in the data set on cercariae, the cercaricidal effect entry was “significant cercaricidal effect”. Regarding `O=C(Nc1ccc([N+](=O)[O-])cc1Cl)c1cc(Cl)ccc1O` [Niclosamide], the cercaricidal effect entry in the data set with cercariae is “significant cercaricidal effect”. In the case of `CCN(CC)C(=O)c1cccc(C)c1` [^14C-DEET], in data set [1] (15 minutes after application), the urine radioactivity is given as > 5.7×10^7 cpm/ml. Besides, the “radio label in the blood” value in data set [1] (within 15 minutes after application) is “Significant quantity of the radio label was present in the blood”.

Regarding `O=C(OCc1ccccc1)c1ccccc1` [benzyl benzoate], the cercaricidal effect entry with cercariae is given as “significant cercaricidal effect”. As to `CCCCOC(=O)c1ccccc1C(=O)OCCCC` [dibutyl phthalate], in the data set with cercariae, the cercaricidal effect result was “significant cercaricidal effect”. In the case of `Oc1c(Cl)cc(Cl)c(Cl)c1Cc1c(O)c(Cl)cc(Cl)c1Cl` [hexachlorophene], the cercaricidal effect entry with cercariae is on record as “significant cercaricidal effects”; with cercariae (listed as hexachlorophere), “significant cercaricidal effect”.
